What was measured:
Type in all cases: in vivo
[1] = test system: ABUTILON THEOPHRASTI, MEDIC.; assay: Postemergence herbicidal evaluation, ABUTH (Velvetleaf)
In short: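 Velvetleaf (Abutilon theophrasti) seedlings were raised in jiffy flats for about two weeks and then sprayed postemergence. The test compound was dispersed in a 50/50 acetone/water mixture containing 0.5% TWEEN®20 and applied through a nozzle operating at 40 psi. Plants were kept on greenhouse benches and rated 0-9 four to five weeks after treatment.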

[2] = test system: AMBROSIA ARTEMISIIFOLIA, L.; assay: Postemergence herbicidal evaluation, AMBEL (Ragweed, Common)
In short: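 Common ragweed (Ambrosia artemisiifolia) seedlings were raised in jiffy flats for roughly two weeks, then sprayed postemergence through a nozzle at 40 psi with the test compound dispersed in 50/50 acetone/water carrying 0.5% TWEEN®20. The plants were kept on greenhouse benches under conventional care. Four to five weeks later, injury was rated visually on a 0-9 scale, and repeat tests were averaged.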

CASSIA OBTUSIFOLIA, L. [3] = assay: Postemergence herbicidal evaluation, CASOB (Sicklepod); design: key to CASOB rating / Herbicidal effect rating, CASOB / CASOB: 0-9 visual rating scale vs untreated control
In short: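 Greenhouse postemergence test. Seedlings (~2 wk) sprayed at 40 psi; dose ~0.125–0.500 kg/ha in acetone/water (1:1), 0.5% TWEEN 20. Scored 0–9 at 4–5 wk.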

CHENOPODIUM ALBUM, L. [4] = assay: Postemergence herbicidal evaluation, CHEAL (Lambsquarters, Common)
In short: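 Seedlings of common lambsquarters (Chenopodium album) were raised in jiffy flats for roughly two weeks, then sprayed postemergence through a nozzle at 40 psi with test compound dispersed in 50/50 acetone/water containing 0.5% TWEEN®20 surfactant. Plants were kept on greenhouse benches under standard care and rated visually on a 0-9 scale versus controls.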

IPOMOEA SPP. [5] = assay: Postemergence herbicidal evaluation, IPOSS (Morningglory spp.)
In short: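 Seedlings of morningglory (Ipomoea spp.) were raised in jiffy flats for roughly two weeks. They were then sprayed postemergence through a nozzle at 40 psi with test compound dispersed in 50/50 acetone/water containing 0.5% TWEEN®20 surfactant. Plants were kept on greenhouse benches under standard care and visually rated 0-9 against controls four to five weeks after treatment.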

[6] = test system: SETARIA VIRIDIS, (L) BEAU; assay: Postemergence herbicidal evaluation, SETVI (Foxtail, Green); design: key to SETVI rating / Herbicidal effect rating, SETVI / SETVI: 0-9 visual rating scale vs untreated control
In short: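 Seedlings about two weeks old were sprayed with compound in 50/50 acetone/water containing 0.5% Tween 20 at about 0.125-0.500 kg/ha and kept in the greenhouse. Visual injury was rated on a 0-9 scale versus control 4-5 weeks after treatment; repeat tests were averaged.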

[7] = test system: TRITICUM AESTIVUM, CV. APOLLO; assay: Postemergence herbicidal evaluation, TRZAWO (Wheat, Winter, CV. APOLLO)
Description: In the tests, seedling plants are grown in jiffy flats for about two weeks. The test compounds are dispersed in 50/50 acetone/water mixtures containing 0.5% TWEEN®20, a polyoxyethylene sorbitan monolaurate surfactant of Atlas Chemical Industries, […] through a spray nozzle operating at 40 psi for a predetermined time. After spraying, the plants are placed on greenhouse benches and are cared for in the usual manner, commensurate with conventional greenhouse practices. From four to five weeks after treatment, the seedling plants are examined and rated according to the rating system set forth below. Where more than one test is involved for a given compound, the data are averaged.
(§1) Plant species employed in these evaluations are reported by header abbreviation, common name and scientific name.
(§2) Results of herbicide evaluation are expressed on a rating scale (0-9). The scale is based upon a visual observation of plant stand, vigor, malformation, size, chlorosis and overall plant appearance as compared with a control.

ZEA MAYS L. [8] = assay: Postemergence herbicidal evaluation, ZEAMX (Corn, Field)
Description: In the tests, seedling plants are grown in jiffy flats for about two weeks. The test compounds are dispersed in 50/50 acetone/water mixtures containing 0.5% TWEEN®20, a polyoxyethylene sorbitan monolaurate surfactant of Atlas Chemical Industries, […] to the plants through a spray nozzle operating at 40 psi for a predetermined time. After spraying, the plants are placed on greenhouse benches and are cared for in the usual manner, commensurate with conventional greenhouse practices. From four to five weeks after treatment, the seedling plants are examined and rated according to the rating system set forth below. Where more than one test is involved for a given compound, the data are averaged.
as §1, §2

[9] = test system: AMBROSIA ARTEMISIIFOLIA, L.; assay: Preemergence herbicidal evaluation, AMBEL (Ragweed, Common); settings: rated four to five weeks after treatment
Text: as §2
(§3) The preemergence herbicidal activity of the test compounds of the present invention is exemplified by the following tests in which the seeds of a variety of monocotyledonous and dicotyledonous plants are separately mixed with potting soil and planted on top of approximately one inch of soil in separate pint cups. […] The treated cups are then placed on greenhouse benches, watered and cared for in accordance with conventional greenhouse procedures. From four to five weeks after treatment, the tests are terminated and each cup is examined and rated according to the rating system provided in Example 40.
(§4) The compounds evaluated are reported by compound number given in Example 40.

CASSIA OBTUSIFOLIA, L. [10] = assay: Preemergence herbicidal evaluation, CASOB (Sicklepod); settings: rated four to five weeks after treatment
In short: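 Seeds of various monocot and dicot plants, including sicklepod, were each mixed with potting soil and sown on roughly one inch of soil in separate pint cups for preemergence testing. Treated cups were kept on greenhouse benches, watered and maintained conventionally. Four to five weeks after treatment, each cup was visually rated on a 0-9 scale against a control.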

CHENOPODIUM ALBUM, L. [11] = assay: Preemergence herbicidal evaluation, CHEAL (Lambsquarters, Common); settings: rated four to five weeks after treatment
In short: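 Greenhouse preemergence test; treated soil cups received compound in aqueous acetone (about 0.125 to 0.50 kg/ha) right after sowing and were assessed visually 4-5 weeks later on a 0-9 scale compared with control plants.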

IPOMOEA SPP. [12] = assay: Preemergence herbicidal evaluation, IPOSS (Morningglory spp.); settings: rated four to five weeks after treatment
Text: as §2, §3, §4

ZEA MAYS L. [13] = assay: Preemergence herbicidal evaluation, ZEAMX (Corn, Field); settings: rated four to five weeks after treatment
In short: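 Corn (Zea mays) seeds were mixed with potting soil and planted on about one inch of soil in pint cups, then treated preemergence. Cups were kept on greenhouse benches, watered and maintained conventionally, and after four to five weeks were visually rated on a 0-9 scale versus an untreated control.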

[14] = test system: ORYZA SATIVA, L. TEBONNET; assay: Rice tolerance to post-transplant applications under flooded paddy conditions, ORYSAT (Rice, Tebonnet); settings: post-transplant rice, 3-4 weeks after treatment
In short: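 Post-transplant paddy test: compound applied 3 d after transplanting to flooded soil (1.5-3 cm water), ~0.063-0.5 kg/ha a.i., 50/50 aq/acetone. Silt loam, 2 × 10-d seedlings/pot. Greenhouse 3-4 wk, visual 0-9 score vs control.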

GALIUM APARINE = assay: Preemergence herbicidal evaluation, GALAP (Galium); settings: rated four to five weeks after treatment
Text: as §2, §3, §4

[15] = test system: TRITICUM AESTIVUM, CV. APOLLO; assay: Preemergence herbicidal evaluation, TRZAWO (Wheat, Winter, CV. APOLLO); settings: rated four to five weeks after treatment
Text: as §2, §3, §4

[16] = test system: CYPERUS SEROTINUS, ROTTB.; assay: Preemergence weed control under flooded paddy conditions, CYPSE (Flatsedge); settings: preemergence, 3-4 weeks after treatment
In short: (§5)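 Flooded paddy preemergence test: seeds/propagating organs in top 0.5 cm silt loam, water held 1.5-3 cm above soil. Dosing by pipette into flood water, aqueous/acetone 50/50 v/v, ~0.5, 0.25, 0.125, 0.063 kg/ha a.i. Greenhouse; read at 3-4 wk, 0-9 visual scale.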

SAGITTARIA PYGMAEA, L. = assay: Preemergence weed control under flooded paddy conditions, SAGPY (Arrowhead (Pygmaea)); settings: preemergence, 3-4 weeks after treatment
In short: as §5

COC(=O)Cn1c(=O)n(C)c(=O)n(-c2cc(Oc3ncc(C(F)(F)F)cc3Cl)ccc2Br)c1=O [Compound 45]
ABUTH rating ([1]; Rate 0.125 kg/ha): 9.0
ABUTH rating ([1]; Rate 0.250 kg/ha): 9.0
ABUTH rating ([1]; Rate 0.500 kg/ha): 9.0
AMBEL rating ([2]; Rate 0.125 kg/ha): 9.0
AMBEL rating ([2]; Rate 0.250 kg/ha): 9.0
AMBEL rating ([2]; Rate 0.500 kg/ha): 9.0
CASOB rating (CASSIA OBTUSIFOLIA, L. [3]; Rate 0.125 kg/ha): 9.0
CASOB rating (CASSIA OBTUSIFOLIA, L. [3]; Rate 0.250 kg/ha): 9.0
CASOB rating (CASSIA OBTUSIFOLIA, L. [3]; Rate 0.500 kg/ha): 9.0
CHEAL rating (CHENOPODIUM ALBUM, L. [4]; Rate 0.125 kg/ha): 9.0
CHEAL rating (CHENOPODIUM ALBUM, L. [4]; Rate 0.250 kg/ha): 9.0
CHEAL rating (CHENOPODIUM ALBUM, L. [4]; Rate 0.500 kg/ha): 9.0
IPOSS rating (IPOMOEA SPP. [5]; Rate 0.125 kg/ha): 9.0
IPOSS rating (IPOMOEA SPP. [5]; Rate 0.250 kg/ha): 9.0
IPOSS rating (IPOMOEA SPP. [5]; Rate 0.500 kg/ha): 9.0
SETVI rating ([6]; Rate 0.125 kg/ha): 9.0
SETVI rating ([6]; Rate 0.250 kg/ha): 9.0
SETVI rating ([6]; Rate 0.500 kg/ha): 9.0
TRZAWO rating ([7]; Rate 0.125 kg/ha): 9.0
TRZAWO rating ([7]; Rate 0.250 kg/ha): 9.0
TRZAWO rating ([7]; Rate 0.500 kg/ha): 9.0
ZEAMX rating (ZEA MAYS L. [8]; Rate 0.125 kg/ha): 9.0
ZEAMX rating (ZEA MAYS L. [8]; Rate 0.250 kg/ha): 9.0
ZEAMX rating (ZEA MAYS L. [8]; Rate 0.500 kg/ha): 9.0
AMBEL herbicidal rating ([9]; Rate 0.125 kg/ha): 0.0
AMBEL herbicidal rating ([9]; Rate 0.250 kg/ha): 0.0
AMBEL herbicidal rating ([9]; Rate 0.500 kg/ha): 0.0
CASOB herbicidal rating (CASSIA OBTUSIFOLIA, L. [10]; Rate 0.125 kg/ha): 0.0
CASOB herbicidal rating (CASSIA OBTUSIFOLIA, L. [10]; Rate 0.250 kg/ha): 0.0
CASOB herbicidal rating (CASSIA OBTUSIFOLIA, L. [10]; Rate 0.500 kg/ha): 0.0
CHEAL herbicidal rating (CHENOPODIUM ALBUM, L. [11]; Rate 0.125 kg/ha): 9.0
CHEAL herbicidal rating (CHENOPODIUM ALBUM, L. [11]; Rate 0.250 kg/ha): 9.0
CHEAL herbicidal rating (CHENOPODIUM ALBUM, L. [11]; Rate 0.500 kg/ha): 9.0
IPOSS herbicidal rating (IPOMOEA SPP. [12]; Rate 0.125 kg/ha): 0.0
IPOSS herbicidal rating (IPOMOEA SPP. [12]; Rate 0.250 kg/ha): 0.0
IPOSS herbicidal rating (IPOMOEA SPP. [12]; Rate 0.500 kg/ha): 0.0
ZEAMX herbicidal rating (ZEA MAYS L. [13]; Rate 0.125 kg/ha): 0.0
ZEAMX herbicidal rating (ZEA MAYS L. [13]; Rate 0.250 kg/ha): 0.0
ZEAMX herbicidal rating (ZEA MAYS L. [13]; Rate 0.500 kg/ha): 0.0
Herbicidal effect rating, ORYSAT ([14]; 0.063 kg/ha): 2.0
Herbicidal effect rating, ORYSAT ([14]; 0.125 kg/ha): 2.0
Herbicidal effect rating, ORYSAT ([14]; 0.250 kg/ha): 4.0
Herbicidal effect rating, ORYSAT ([14]; 0.500 kg/ha): 6.0

Cn1c(=O)n(CC(=O)OC(C)(C)C)c(=O)n(-c2cc(Oc3ccc(C(F)(F)F)cc3Cl)ccc2Cl)c1=O [Compound 40, Tert-butyl 3-{[2-chloro-5-(2-chloro-α,α,α-trifluoro-p-tolyl)oxy]phenyl}tetrahydro-5-methyl-2,4,6-trioxo-s-triazine-1(2H)-acetate]
AMBEL herbicidal rating ([9]; Rate 0.125 kg/ha): 0.0
AMBEL herbicidal rating ([9]; Rate 0.250 kg/ha): 0.0
CASOB herbicidal rating (CASSIA OBTUSIFOLIA, L. [10]; Rate 0.125 kg/ha): 1.0
CASOB herbicidal rating (CASSIA OBTUSIFOLIA, L. [10]; Rate 0.250 kg/ha): 1.0
IPOSS herbicidal rating (IPOMOEA SPP. [12]; Rate 0.125 kg/ha): 0.5
IPOSS herbicidal rating (IPOMOEA SPP. [12]; Rate 0.250 kg/ha): 0.5
GALAP herbicidal rating (GALIUM APARINE; Rate 0.125 kg/ha): 4.5
GALAP herbicidal rating (GALIUM APARINE; Rate 0.250 kg/ha): 4.5
TRZAWO herbicidal rating ([15]; Rate 0.125 kg/ha): 0.0
TRZAWO herbicidal rating ([15]; Rate 0.250 kg/ha): 0.0
Herbicidal effect rating, CYPSE ([16]; 0.063 kg/ha): 0.0
Herbicidal effect rating, CYPSE ([16]; 0.125 kg/ha): 0.0
Herbicidal effect rating, CYPSE ([16]; 0.250 kg/ha): 0.0
Herbicidal effect rating, CYPSE ([16]; 0.500 kg/ha): 0.0
Herbicidal effect rating, SAGPY (SAGITTARIA PYGMAEA, L.; 0.063 kg/ha): 0.0
Herbicidal effect rating, SAGPY (SAGITTARIA PYGMAEA, L.; 0.125 kg/ha): 0.0
Herbicidal effect rating, SAGPY (SAGITTARIA PYGMAEA, L.; 0.250 kg/ha): 0.0
Herbicidal effect rating, SAGPY (SAGITTARIA PYGMAEA, L.; 0.500 kg/ha): 0.0
Herbicidal effect rating, ORYSAT ([14]; 0.063 kg/ha): 0.5
Herbicidal effect rating, ORYSAT ([14]; 0.125 kg/ha): 0.5
Herbicidal effect rating, ORYSAT ([14]; 0.250 kg/ha): 1.5
Herbicidal effect rating, ORYSAT ([14]; 0.500 kg/ha): 1.5

Source: EP0745595A1, “3-(3-Aryloxyphenyl)-1-(substituted methyl)-s-triazine-2,4,6-oxo or thiotrione herbicidal agents” (American Cyanamid Company, priority 1995, dated 1996)
